From patent publication US9376440B2, “Pyrrolobenzodiazepines as antiproliferative agents” (MEDIMMUNE LIMITED, priority 2012, dated 2016)
Read-outs that look alike come from different tables or passages of the source.

Assays:
A549 (lung) = assay: MTT cytotoxicity assay, A549; format: cell-based; settings: Homo sapiens, read-out: IC50 (nM) A549
Procedure: (§1) The cytotoxicity potential of the compounds of the invention 16c-h was compared with the comparative compounds 16a, 16b and GWL-78 in a number of tumour cell lines and the non-cancer cell line WI38 after 96 hours exposure using the MTT (3-(4,5-Dimethylthiazol-2-yl)-2,5-diphenyltetrazolium bromide) colorimetric assay, as described below.
(§2) A panel of several types of human cancer cell lines including epidermoid (A431), lung (A549), ovarian (A2780) and breast (MCF7 and MDAMB-231), as well as the non-tumour cell line WI38, were used to determine the cytotoxicity of the compounds. The cells were grown in normal conditions at 37° C. under a 5% CO2 humidified atmosphere, either in Dulbecco's Modified Eagle Medium or Modified Eagle Medium (depending on the cell line), supplemented with 10% fetal bovine serum (Biosera, UK), 1% L-glutamine, 1% non-essential amino acids and 0.05% hydrocortisone (Gibco, Invitrogen, USA). Cells were then seeded into 96-well plates in a total volume of 160 μl, and allowed to reach a 30-40% degree of confluence before starting the experiment. The ligands were dissolved in sterilized ultrapure water at a maximum concentration of 100 μM, and serial decimal dilutions prepared. These were added to the cells in a volume of 40 μl. After 96 hours of continuous exposure to each ligand, the cytotoxicity was determined by the MTT (3-(4,5-Dimethylthiazol-2-yl)-2,5-diphenyltetrazolium bromide) (Lancaster Synthesis Ltd, UK) colorimetric assay (Skehan P, S. R., et al., Journal of the National Cancer Institute 1990, 82, 1107). Absorbance was quantified by spectrophotometry at A=570 nm (ELx808, Bio-Tek Instruments, Inc., USA). IC50 values were calculated by a dose-response analysis using the Origin 6.0™ software.

primary CLL cells = assay: Annexin V/propidium iodide flow cytometry assay in primary CLL cells; format: cell-based; settings: CLL cell
Procedure: The cytotoxicity potential of the compounds of the invention 16c-h was also compared with the comparative compounds 16a, 16b and GWL-78 in a primary CLL cell lines using the Annexin V assay (van Engeland, M, et al., Cytometry 1998, 31, 1-9), as described below.
Freshly isolated peripheral blood CLL cells (1×10^8 mL^−1) were cultured in RPMI medium (Invitrogen, Paisley, U.K.) supplemented with 100 U/mL penicillin, […] streptomycin, and 10% fetal calf serum. The cells were incubated at 37° C. in a humidified 5% CO2 atmosphere in the presence of each compound. All compounds were dissolved in DMSO and were evaluated in serial dilutions against the primary CLL cells. In addition, control cultures were carried out to which no drug was added. The cytotoxic effects of the compounds were quantified using an annexin V/propidium iodide flow cytometry assay (Bender Medsystems, Vienna, Austria). All assays were performed in duplicate, and LD50 values were calculated from sigmoidal dose-response curves using the Prism 6.0 software (Graphpad Software Inc., San Diego, Calif.). The sigmoidal dose-response curves were derived by plotting log [compound concentration] against the percentage apoptosis induced by that concentration. A wide range of concentrations were used to establish the biologically active range for each individual compound.

Mia Paca 2 = assay: MTT cytotoxicity assay, Mia Paca 2; format: cell-based; settings: Homo sapiens, read-out: IC50 (nM) Mia Paca 2
Procedure: as §1, §2

A2780 (ovarian) = assay: MTT cytotoxicity assay, A2780; format: cell-based; settings: Homo sapiens, read-out: IC50 (nM) A2780
Procedure: as §1, §2

[1] = MTD (maximum tolerated dose) study, intraperitoneal dosing; format: in vivo, mouse; settings: for weight loss: Swiss-Webster mice, IP, 400 μg/Kg/day
Procedure: Initially a small scale study was carried out to determine the MTD (maximum tolerated dose) in Swiss-Webster mice using intraperitoneal dosing (IP). […] As 16f provided a marginally better toxicity profile in the MTD study, it was decided to carry out more extensive in vivo tumour xenograft studies on this molecule.

WI38 = assay: MTT cytotoxicity assay, non-tumour cell line WI38; format: cell-based; settings: Homo sapiens, read-out: IC50 (nM) WI38
Procedure: as §1, §2

A431 (epidermoid) = assay: MTT cytotoxicity assay, A431; format: cell-based; settings: Homo sapiens, read-out: IC50 (nM) A431
Procedure: as §1, §2

[2] = system: MDA MB 231 breast cancer xenograft; assay: ER-negative MDA MB 231 breast cancer xenograft study; format: in vivo, mouse; settings: for in vivo antitumour activity compared to control mice: female MF1 nude mice
Procedure: In vivo studies of the activity of 16f were carried out in an ER-negative MDA MB 231 breast cancer xenograft in a mouse model. The human breast cancer cell line MDA-MB-231 (5×10^8 cells) was employed to establish xenografts in the flanks of female MF1 nude mice, 2-3 months old and weighing 20-25 g. Subsequent passaging was by the subcutaneous implantation of small tumour pieces (approx 1 mm^3) into the flank. When the tumours reached approx. 0.06 cm^3 (three weeks post implantation) they were divided into 3 groups of 4 mice. The drug treated groups were administered with an IV dose (in DMSO) of either 250 μg/Kg/day or 300 μg/Kg/day for 5 consecutive days followed by two drug free days for 3 weeks, followed by 2 consecutive days in week 4 at which point the dosage was stopped.

EGR = assay: Transcription Factor Activation Profiling Array Assay (Signosis), HeLa; format: cell-based; settings: 10 nM, 4 hours
Procedure: (§3) 16f was evaluated in a commercial Transcription Factor Activation Profiling Array Assay™ (Signosis) using the HeLa cell line. In this assay the activities of 48 transcription factors could be monitored simultaneously using a collection of biotin-labeled DNA probes based on the consensus sequences of individual transcription factor DNA-binding sites. […] The activity of NF-κB was reduced by almost 50%.

NF-κB = assay: as above; format: cell-based; settings: 10 nM, 4 hours
Procedure: as §3

NFAT = assay: as above; format: cell-based; settings: 10 nM, 4 hours
Procedure: as §3

OCT-4 = assay: as above; format: cell-based; settings: 10 nM, 4 hours
Procedure: as §3

SMAD = assay: as above; format: cell-based; settings: 10 nM, 4 hours
Procedure: as §3

phosphorylated-p65 = assay: Western Blotting in CLL cells, surrogate for NF-κB activity; format: cell-based; settings: 24 hours incubation
Source text: (§4) Based on the hypothesis that 16f may down-regulate the expression of NF-κB-dependent genes (e.g., IκB, BCL2, BCLXL) by binding to the cognate DNA sequence of NF-κB, thereby blocking interaction of the transcription factor protein and inhibiting transcription of a number of genes, it was decided to explore this possibility in CLL cells in which NF-κB signaling is known to be active and closely correlates with the initiation and progression of malignancy.

phosphorylated IκBα = assay: as above; format: cell-based; settings: 24 hours incubation, concentrations down to 0.1 nM
Source text: as §4

[3] = system: Mia Paca 2 pancreatic cancer xenograft; assay: Mia Paca 2 pancreatic cancer xenograft in mouse model; format: in vivo
Procedure: (§5) An in vivo study of 16f was carried out in a pancreatic cancer xenograft mouse model, in a similar manner to the above. The drug (16f) treated group was administered an IV dose of 300 μg/Kg/day for 5 consecutive days followed by 2 drug free days, and the cycle was continued for 3 weeks.

NFκB = assay: Immunohistochemical staining of xenograft tumour cross-sections; format: in vivo, mouse; settings: treated vs controls
Procedure: as §5

MDAMB-231 (breast) = assay: MTT cytotoxicity assay, MDAMB-231; format: cell-based; settings: Homo sapiens, read-out: IC50 (nM) MDAMB-231
Procedure: as §1, §2

MCF7 (breast) = assay: MTT cytotoxicity assay, MCF7; format: cell-based; settings: Homo sapiens, read-out: IC50 (nM) MCF7
Procedure: as §1, §2

DNA = settings: cited from earlier work

## COC(=O)c1cc(-c2ccc(NC(=O)c3cc(NC(=O)CCCOc4cc5c(cc4OC)C(=O)N4CCC[C@H]4C=N5)cn3C)cc2)cn1C [Compound 16e, (S)-methyl 4-(4-(4-(4-(7-methoxy-5-oxo-2,3,5,11a-tetrahydro-1H-pyrrolo[2,1-c][1,4]benzodiazepine-8-yloxy)butanamido)-1-methyl-1H-pyrrole-2-carboxamido)phenyl)-1-methyl-1H-pyrrole-2-carboxylate]
A549 (lung); A549, 96 h
  IC50: 0.056 nM
Primary CLL cells
  IC50: 98 pM
Mia Paca 2; MIA PaCa-2, 96 h
  IC50: 0.0013 nM
A2780 (ovarian); A2780, 96 h
  IC50: 0.013 nM
[1]
  weight loss: minor weight loss
WI38; WI-38, 96 h
  IC50: 474 nM
A431 (epidermoid); A-431, 96 h
  IC50: 0.0056 nM

## COC(=O)c1cc(-c2ccc(NC(=O)c3nc(NC(=O)CCCOc4cc5c(cc4OC)C(=O)N4CCC[C@H]4C=N5)cn3C)cc2)cn1C [Compound 16f, (S)-methyl 4-(4-(4-(4-(7-methoxy-5-oxo-2,3,5,11a-tetrahydro-1H-pyrrolo[2,1-c][1,4]benzodiazepine-8-yloxy)butanamido)-1-methyl-1H-imidazole-2-carboxamido)phenyl)-1-methyl-1H-pyrrole-2-carboxylate]
A549 (lung); A549, 96 h
  IC50: 0.034 nM
[2]; 300 μg/Kg dose level, up to 3 weeks after last dose
  tumour re-growth after last IV dose: did not re-grow
[2]; IV 250 μg/Kg/day
  in vivo antitumour activity compared to control mice: prominent in vivo antitumour activity
[2]; IV 300 μg/Kg/day
  in vivo antitumour activity compared to control mice: prominent in vivo antitumour activity
[2]; IV 250 and 300 μg/Kg dose levels
  signs of toxicity: without any signs of toxicity
Primary CLL cells
  IC50: 170 pM
EGR
  down-regulation of EGR activity: at least 30%
NF-κB; specific value
  reduction of NF-κB activity: ~50%
NF-κB; top five, at least
  down-regulation of NF-κB activity: at least 30%
NFAT
  down-regulation of NFAT activity: at least 30%
OCT-4
  down-regulation of OCT-4 activity: at least 30%
SMAD
  down-regulation of SMAD activity: at least 30%
phosphorylated-p65
  effect on phosphorylated-p65: only a marginal effect
Phosphorylated IκBα
  suppression of phosphorylated IκBα: significant suppression
[3]; 300 μg/Kg, up to 21 days after last dose
  tumour growth after last administered dose: no growth was observed
[3]; IV 300 μg/Kg dose level
  signs of toxicity: without any signs of toxicity
[3]; IV 300 μg/Kg/day, 5 days on/2 days off, 3 weeks
  antitumour activity compared to control mice: prominent antitumour activity
Mia Paca 2; MIA PaCa-2, 96 h
  IC50: 0.0021 nM
A2780 (ovarian); A2780, 96 h
  IC50: 0.021 nM
[1]
  weight loss: insignificant weight loss
[1]; repeat MTD experiment, 350 μg/Kg/day
  weight loss or other signs of toxicity: did not show any weight loss or other signs of toxicity
WI38; WI-38, 96 h
  IC50: 129 nM
NFκB
  immunohistochemical staining findings: consistent with NFκB inhibition
A431 (epidermoid); A-431, 96 h
  IC50: 0.018 nM

## COC(=O)c1cc(NC(=O)c2cc(NC(=O)c3cc(-c4ccc(NC(=O)CCCOc5cc6c(cc5OC)C(=O)N5CCC[C@H]5C=N6)cc4)cn3C)cn2C)cn1C [Compound 16g, (S)-methyl 4-(4-(4-(4-(4-(7-methoxy-5-oxo-2,3,5,11a-tetrahydro-1H-pyrrolo[2,1-c][1,4]benzodiazepine-8-yloxy)butanamido)phenyl)-1-methyl-1H-pyrrole-2-carboxamido)-1-methyl-1H-pyrrole-2-carboxamido)-1-methyl-1H-pyrrole-2-carboxylate]
A549 (lung); A549, 96 h
  IC50: 2.3 nM
Primary CLL cells
  IC50: 960 pM
Mia Paca 2; MIA PaCa-2, 96 h
  IC50: 0.31 nM
MDAMB-231 (breast); MDA-MB-231, 96 h
  IC50: 0.59 nM
MCF7 (breast); MCF7, 96 h
  IC50: 0.31 nM
A2780 (ovarian); A2780, 96 h
  IC50: 0.24 nM
WI38; WI-38, 96 h
  IC50: 41.3 nM
A431 (epidermoid); A-431, 96 h
  IC50: 0.86 nM

## COC(=O)c1ccc(NC(=O)c2ccc(NC(=O)CCCOc3cc4c(cc3OC)C(=O)N3CCC[C@H]3C=N4)n2C)n1C [GWL-78, reference compound]
A549 (lung); A549, 96 hours exposure, MTT
  IC50: 6.1 nM
Primary CLL cells; primary CLL cells, annexin V/propidium iodide, apoptosis, read-out: IC50
  IC50: 1300 pM
Mia Paca 2; MIA PaCa-2, 96 hours exposure, MTT
  IC50: 2.4 nM
MDAMB-231 (breast); MDA-MB-231, 96 hours exposure, MTT
  IC50: 0.12 nM
DNA
  increase in DNA binding affinity compared to constituent PBD and dipyrrole components: up to 50 fold
MCF7 (breast); MCF7, 96 hours exposure, MTT
  IC50: 0.32 nM
A2780 (ovarian); A2780, 96 hours exposure, MTT
  IC50: 0.57 nM
WI38; WI-38, 96 hours exposure, MTT, non-cancer cell line
  IC50: 41.3 nM
A431 (epidermoid); A-431, 96 hours exposure, MTT
  IC50: 0.55 nM
